{"source": "patent US20210346357A1", "about": "(priority 2020, published 2021)", "key": {"[1]": {"system": "IL-2 stimulated pSTAT5 in Tall-1 T cells (JAK1/3)", "test": "Inhibition of IL-2 stimulated pSTAT5 in Tall-1 T cells", "type": "cell-based", "conditions": "Homo sapiens, IL-2 300 ng/mL, AlphaLisa pSTAT5, read-out: Tall-1 pIC50 (converted)", "protocol": "Assay 2: Inhibition of IL-2 Stimulated pSTAT5 in Tall-1 T Cells\nThe potency of test compounds for inhibition of interleukin-2 (IL-2) stimulated STATS phosphorylation was measured in the Tall-1 human T cell line (DSMZ) using AlphaLisa. Because IL-2 signals through JAK1/3, this assay provides a measure of JAK1/3 cellular potency.\nPhosphorylated STATS was measured via the AlphaLISA SureFire Ultra pSTAT5 (Tyr694/699) kit (PerkinElmer).\nHuman T cells from the Tall-1 cell line were cultured in a 37° C., 5% CO2 humidified incubator in RPMI (Life Technologies) supplemented with 15% Heat Inactivated Fetal Bovine Serum (FBS, Life Technologies), 2mM Glutamax (Life Technologies), 25 mM HEPES (Life Technologies) and 1X Pen/Strep (Life Technologies). […] Phosphorylated STATS was measured via the pSTAT5 AlphaLisa kit (PerkinElmer). […] Luminescence was measured with excitation at 689 nm and emission at […] using an EnVision plate reader (PerkinElmer) under green filtered <100 lux light.\nTo determine the inhibitory potency of test compounds in response to IL-2, the average emission intensity of beads bound to pSTAT5 was measured in a human T cell line. IC50 values were determined from analysis of the inhibition curves of signal intensity versus compound concentration. Data are expressed as pIC50 (negative decadic logarithm IC50) values (mean±standard deviation)."}, "Abl2": {"target": "Abl2 (Homo sapiens, UniProt P42684)", "sequence (P42684 whole entry)": "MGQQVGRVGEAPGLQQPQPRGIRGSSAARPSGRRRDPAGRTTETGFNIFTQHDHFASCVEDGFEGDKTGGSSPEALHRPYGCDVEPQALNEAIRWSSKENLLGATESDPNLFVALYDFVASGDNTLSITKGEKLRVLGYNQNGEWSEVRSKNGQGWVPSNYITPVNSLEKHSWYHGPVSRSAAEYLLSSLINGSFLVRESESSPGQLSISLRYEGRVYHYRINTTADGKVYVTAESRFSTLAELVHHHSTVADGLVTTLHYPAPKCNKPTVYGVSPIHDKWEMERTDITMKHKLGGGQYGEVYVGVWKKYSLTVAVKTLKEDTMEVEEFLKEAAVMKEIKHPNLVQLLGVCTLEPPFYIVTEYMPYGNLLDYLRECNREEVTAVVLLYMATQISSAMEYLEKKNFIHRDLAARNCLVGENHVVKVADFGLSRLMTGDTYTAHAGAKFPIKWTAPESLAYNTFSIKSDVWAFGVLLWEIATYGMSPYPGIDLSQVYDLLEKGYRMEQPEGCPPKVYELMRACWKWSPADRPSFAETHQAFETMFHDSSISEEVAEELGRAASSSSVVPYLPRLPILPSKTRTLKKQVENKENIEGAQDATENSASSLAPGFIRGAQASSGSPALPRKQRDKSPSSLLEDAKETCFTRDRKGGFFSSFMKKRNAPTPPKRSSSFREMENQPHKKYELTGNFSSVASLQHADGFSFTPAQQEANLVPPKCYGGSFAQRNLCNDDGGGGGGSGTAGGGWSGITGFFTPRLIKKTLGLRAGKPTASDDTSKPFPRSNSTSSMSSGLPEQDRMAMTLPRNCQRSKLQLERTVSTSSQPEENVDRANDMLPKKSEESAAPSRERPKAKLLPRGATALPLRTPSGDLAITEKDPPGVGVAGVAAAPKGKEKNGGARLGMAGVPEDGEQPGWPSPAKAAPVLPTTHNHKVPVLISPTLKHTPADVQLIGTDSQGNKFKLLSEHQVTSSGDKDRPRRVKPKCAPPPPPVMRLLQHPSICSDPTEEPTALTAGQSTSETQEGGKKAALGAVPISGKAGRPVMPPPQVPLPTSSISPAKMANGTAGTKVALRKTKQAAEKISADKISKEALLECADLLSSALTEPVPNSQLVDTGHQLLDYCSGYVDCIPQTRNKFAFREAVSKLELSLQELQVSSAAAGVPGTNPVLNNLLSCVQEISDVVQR", "test": "biochemical", "conditions": "ATP 10 μM"}}}
{"compound": "CCc1cc(O)ccc1-c1ccc2c(-c3nc4c([nH]3)CN(C(C)C)[C@H](C(=O)N3CC(N(C)C)C3)C4)n[nH]c2c1", "note": "[Compound 1, (S)-(3-(dimethylamino)azetidin-1-yl)(2-(6-(2-ethyl-4-hydroxyphenyl)-1H-indazol-3-yl)-5-isopropyl-4,5,6,7-tetrahydro-3H-imidazo[4,5-c]pyridin-6-yl)methanone]", "values": [{"measurement": "IC50", "setting": "[1]", "result": 2.51, "unit": "nM"}, {"measurement": "IC50", "setting": "Abl2", "result": 15, "unit": "nM"}]}
